Read-outs that look alike come from different tables or passages of the source.
Columns and labels:
[1] = molecular target: T1, Smon0121-Smon0122(10xHis)/Smon0120-Smon0120 (Streptobacillus moniliformis, UniProt D1AWD7); details: detergent-solubilised transporter
T1 construct: gene Smon_0120

[2] = molecular target: T2, Smon0127 (Streptobacillus moniliformis, UniProt D1AWE4); experiment: UGL enzyme assay, decrease of absorbance at […] nm; assay type: biochemical
T2 construct: gene Smon_0127; recombinant Smon0127
T2 sequence (D1AWE4 entry or part of it): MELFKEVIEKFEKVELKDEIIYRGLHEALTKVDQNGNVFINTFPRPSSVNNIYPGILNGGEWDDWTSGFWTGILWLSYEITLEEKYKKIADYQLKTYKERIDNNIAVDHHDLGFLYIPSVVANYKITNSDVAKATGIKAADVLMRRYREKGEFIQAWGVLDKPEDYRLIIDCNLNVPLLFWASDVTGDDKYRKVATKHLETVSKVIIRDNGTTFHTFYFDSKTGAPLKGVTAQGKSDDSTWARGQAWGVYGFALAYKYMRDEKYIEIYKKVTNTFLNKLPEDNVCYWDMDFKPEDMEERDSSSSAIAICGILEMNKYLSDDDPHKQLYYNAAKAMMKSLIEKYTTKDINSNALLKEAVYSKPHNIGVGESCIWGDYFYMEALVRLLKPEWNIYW

[3] = molecular target: Smon0123 (Streptobacillus moniliformis, UniProt D1AWE0); experiment: X-ray crystal structure; tryptophan fluorescence titration; DSF; assay type: binding; set-up: gene Smon_0123; Smon0123 (N-18/C-5) in the crystal; recombinant Smon0123 in solution
Smon0123, sequence (D1AWE0 entry or part of it): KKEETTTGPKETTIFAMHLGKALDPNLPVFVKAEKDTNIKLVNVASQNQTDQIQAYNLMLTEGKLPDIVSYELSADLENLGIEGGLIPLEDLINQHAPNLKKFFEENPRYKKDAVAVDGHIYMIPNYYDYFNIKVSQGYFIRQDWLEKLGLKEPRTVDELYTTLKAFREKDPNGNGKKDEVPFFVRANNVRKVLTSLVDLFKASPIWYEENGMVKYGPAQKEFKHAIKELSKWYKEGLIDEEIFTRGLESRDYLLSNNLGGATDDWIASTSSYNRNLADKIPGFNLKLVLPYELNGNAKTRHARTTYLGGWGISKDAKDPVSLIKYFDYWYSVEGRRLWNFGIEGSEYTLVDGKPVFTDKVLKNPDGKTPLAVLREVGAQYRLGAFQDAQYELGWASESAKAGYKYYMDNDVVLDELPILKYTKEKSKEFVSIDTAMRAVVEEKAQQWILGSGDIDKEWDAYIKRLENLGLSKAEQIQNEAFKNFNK

T1 sequence (D1AWD7 entry or part of it): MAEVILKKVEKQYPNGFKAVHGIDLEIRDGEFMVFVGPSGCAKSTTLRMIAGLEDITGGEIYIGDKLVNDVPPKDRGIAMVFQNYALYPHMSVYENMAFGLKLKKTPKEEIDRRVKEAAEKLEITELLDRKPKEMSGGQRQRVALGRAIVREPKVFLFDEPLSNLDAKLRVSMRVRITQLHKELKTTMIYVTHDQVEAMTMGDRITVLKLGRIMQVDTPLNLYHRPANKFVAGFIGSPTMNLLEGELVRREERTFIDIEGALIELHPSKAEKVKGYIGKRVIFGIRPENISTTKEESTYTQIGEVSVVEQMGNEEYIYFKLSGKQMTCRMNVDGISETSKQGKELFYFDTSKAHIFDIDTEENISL
T1 sequence (D1AWD8 entry or part of it, further chain): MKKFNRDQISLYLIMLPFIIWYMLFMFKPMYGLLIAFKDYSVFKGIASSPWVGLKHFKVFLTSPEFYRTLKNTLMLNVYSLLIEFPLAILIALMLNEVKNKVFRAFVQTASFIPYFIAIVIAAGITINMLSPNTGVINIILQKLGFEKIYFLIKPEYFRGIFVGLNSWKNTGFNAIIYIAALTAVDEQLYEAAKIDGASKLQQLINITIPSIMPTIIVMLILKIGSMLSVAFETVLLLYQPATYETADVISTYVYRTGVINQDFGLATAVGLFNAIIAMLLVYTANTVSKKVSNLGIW
T1 sequence (D1AWD9 entry or part of it, further chain): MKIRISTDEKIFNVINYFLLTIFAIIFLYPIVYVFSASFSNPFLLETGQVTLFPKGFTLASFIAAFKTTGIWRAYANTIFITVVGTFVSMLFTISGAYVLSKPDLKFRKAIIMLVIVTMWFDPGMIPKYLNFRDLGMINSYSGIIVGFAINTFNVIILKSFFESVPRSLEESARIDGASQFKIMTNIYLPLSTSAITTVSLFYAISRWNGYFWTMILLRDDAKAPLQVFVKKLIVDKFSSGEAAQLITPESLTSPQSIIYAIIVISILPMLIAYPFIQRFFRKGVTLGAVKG

Structure (SMILES): Nc1ncnc2c1ncn2[C@@H]1O[C@H](COP(=O)(O)OP(=O)(O)OP(=O)(O)O)[C@@H](O)[C@H]1O [ATP]
- phosphate release from ATP [1]: in the soluble form with detergents exhibited ATPase activity

Structure (SMILES): CC(=O)N[C@H]1C(O)O[C@H](CO)[C@H](O)[C@@H]1O[C@@H]1OC(C(=O)O)=C[C@H](O)[C@H]1O (stereo partly shown) [CΔ0S]
- UGL enzyme assay, decrease of absorbance at 235 nm [2]: 4.46 units/mg
- Kd ([3]; read-out: Kd): 635 ± 122 nM

Structure (SMILES): CC(=O)N[C@H]1C(O)O[C@H](CO)[C@H](OS(=O)(=O)O)[C@@H]1O[C@@H]1OC(C(=O)O)=C[C@H](O)[C@H]1O (stereo partly shown) [CΔ4S]
- UGL enzyme assay, decrease of absorbance at 235 nm [2]: 0.342 units/mg

Structure (SMILES): CC(=O)N[C@H]1C(O)O[C@H](COS(=O)(=O)O)[C@H](O)[C@@H]1O[C@@H]1OC(C(=O)O)=C[C@H](O)[C@H]1O (stereo partly shown) [CΔ6S]
- UGL enzyme assay, decrease of absorbance at 235 nm [2]: 0.272 units/mg
- Kd [3]: 5GX6 for Smon0123/C∆4S, 5GX7 for Smon0123/C∆6S

Structure (SMILES): CC(=O)N[C@H]1C(O)O[C@H](CO)[C@@H](O)[C@@H]1O[C@@H]1OC(C(=O)O)=C[C@H](O)[C@H]1O (stereo partly shown) [ΔHA]
- UGL enzyme assay, decrease of absorbance at 235 nm [2]: 2.26 units/mg

From PMC5430744 (Scientific Reports, 2017)
